Assay results: publication PMC5469273, “Discovery of Novel Small-Molecule Inhibitors of LIM Domain Kinase for Inhibiting HIV-1” (Journal of Virology, 2017)

What was measured:
CK2a = CK2a (Homo sapiens, UniProt P68400); assay: Kinase profiling (Reaction Biology): CK2a
LIMK1 [1] = biological target: T1, LIMK1 (Homo sapiens, UniProt P53667); assay: LIMK1 biochemical assay, 10-dose IC50; design: purified from insect cells; His; purchased Reaction Biology Corporation, Malvern, PA; host or cells: insect cells (coexpressed with ROCK1); conditions: purified LIMK1; 10 μM ATP, 1 μM cofilin; ≥2 in vitro kinase assays; read-out: LIMK1 Biochemical Inhibition IC50
Source text: We selected R10015 from the potential LIMK inhibitors for further detailed mechanistic studies. The synthesis, purification, and biochemical characterization of R10015 are described in Materials and Methods below and shown in Fig. 3. We performed a cell-free assay to measure R10015 inhibition of the LIM domain kinase using purified human LIMK1 and its substrate, cofilin. […] We also performed profiling of R10015 against a panel of 62 kinases (Table 2).
Biochemical LIMK1 assays for all inhibitors were carried out by Reaction Biology Corporation, Malvern, PA, and followed the protocols described on its website. […] Reactions were carried out at 10 μM ATP, 1 μM substrate (cofilin), and 50 nM LIMK1 (final concentrations). […] The reagents were as follows: base reaction buffer, 20 mM HEPES (pH 7.5), 10 mM MgCl2, 1 mM EGTA, 0.02% Brij 35, 0.02 mg/ml bovine serum albumin (BSA), 0.1 mM Na3VO4, 2 mM dithiothreitol (DTT), 1% DMSO. No additional cofactors were added to the reaction mixture. The reaction procedures were as follows. (i) The indicated substrate was prepared in freshly made base reaction buffer. (ii) Any required cofactors were delivered to the substrate solution described above. (iii) The indicated kinase was delivered into the substrate solution and gently mixed. (iv) The compounds in DMSO were delivered into the kinase reaction mixture. (v) [^33P]ATP (final specific activity, 0.01 μCi/μl) was delivered into the reaction mixture to initiate the reaction. […] (viii) The filters were washed extensively in 0.1% phosphoric acid.

PAK2 = PAK2 (Homo sapiens, UniProt Q13177); assay: Kinase profiling (Reaction Biology): PAK2
STK16 = STK16 (Homo sapiens, UniProt O75716); assay: Kinase profiling (Reaction Biology): STK16
[2] = system: cofilin serine 3 phosphorylation; assay: Western blotting for cofilin serine 3 phosphorylation in CEM-SS T cells; conditions: 100 μM, time course
ABL1 = ABL1 (Homo sapiens, UniProt P00519); assay: Kinase profiling (Reaction Biology): ABL1
HIV-1(Env) [3] = assay: 2-LTR circles by real-time PCR (nuclear migration) in CEM-SS T cells; type: cell-based
LIMK1 [4] = biological target: T1, LIMK1; assay: Kinase profiling (Reaction Biology): LIMK1
TBK1 = TBK1 (Homo sapiens, UniProt Q9UHD2); assay: Kinase profiling (Reaction Biology): TBK1
TESK1 = TESK1 (Homo sapiens, UniProt Q15569); assay: Kinase profiling (Reaction Biology): TESK1
CXCR4 = assay: Surface staining of CXCR4 on CEM-SS T cells; type: cell-based, human; conditions: 100 μM, 1 h
JNK1 = JNK1 (Homo sapiens, UniProt P45983); assay: Kinase profiling (Reaction Biology): JNK1
DAPK1 = DAPK1 (Homo sapiens, UniProt P53355); assay: Kinase profiling (Reaction Biology): DAPK1
RET = RET (Homo sapiens, UniProt P07949); assay: Kinase profiling (Reaction Biology): RET
EBOV (Zaire) = type: cell-based, Zaire ebolavirus; conditions: HFF-1 cells, pretreated 2 h, MOI 2.5, 48 h in continuous presence
resting CD4 T cells = assay: FITC-phalloidin staining of F-actin after SDF-1; conditions: 100 μM pretreatment, FITC-phalloidin flow cytometry
FGFR1 = FGFR1 (Homo sapiens, UniProt P11362); assay: Kinase profiling (Reaction Biology): FGFR1
FGFR1, sequence (P11362 22-822): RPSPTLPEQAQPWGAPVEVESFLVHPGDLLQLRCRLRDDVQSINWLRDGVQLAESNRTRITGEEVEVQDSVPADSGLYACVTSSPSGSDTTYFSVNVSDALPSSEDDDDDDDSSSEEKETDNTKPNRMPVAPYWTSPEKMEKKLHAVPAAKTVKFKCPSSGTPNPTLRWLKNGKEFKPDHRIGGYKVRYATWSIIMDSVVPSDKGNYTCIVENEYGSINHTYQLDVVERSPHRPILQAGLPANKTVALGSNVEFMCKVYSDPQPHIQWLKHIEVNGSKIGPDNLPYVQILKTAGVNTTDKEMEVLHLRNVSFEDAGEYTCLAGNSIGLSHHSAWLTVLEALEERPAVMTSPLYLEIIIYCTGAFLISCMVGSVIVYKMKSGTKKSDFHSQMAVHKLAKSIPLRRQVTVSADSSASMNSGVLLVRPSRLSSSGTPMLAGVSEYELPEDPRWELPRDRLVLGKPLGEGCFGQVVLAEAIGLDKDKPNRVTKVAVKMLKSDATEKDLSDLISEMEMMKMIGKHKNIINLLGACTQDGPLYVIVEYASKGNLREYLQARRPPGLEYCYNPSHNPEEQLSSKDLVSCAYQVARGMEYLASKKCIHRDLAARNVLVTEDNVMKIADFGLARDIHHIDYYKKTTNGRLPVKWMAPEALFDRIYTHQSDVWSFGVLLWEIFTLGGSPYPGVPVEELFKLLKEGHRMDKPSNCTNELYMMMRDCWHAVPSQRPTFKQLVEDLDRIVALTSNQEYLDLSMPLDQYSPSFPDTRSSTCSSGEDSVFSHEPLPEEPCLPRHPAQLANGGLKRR

c-Kit = c-Kit (Homo sapiens, UniProt P10721); assay: Kinase profiling (Reaction Biology): c-Kit
p70S6K/RPS6KB1 = p70S6K/RPS6KB1 (Homo sapiens, UniProt P23443); assay: Kinase profiling (Reaction Biology): p70S6K/RPS6KB1; conditions: read-out: inhibition of p70S6K
HIV-1(Env) [5] = type: cell-based
HIV-1(NL4-3) = type: cell-based
Aurora A = Aurora A (Homo sapiens, UniProt O14965); assay: Kinase profiling (Reaction Biology): Aurora A
LRRK2 (G2019S) = LRRK2 (G2019S) (Homo sapiens, UniProt Q5S007, G2019S); assay: Kinase profiling (Reaction Biology): LRRK2 (G2019S)
LRRK2 (G2019S), sequence (Q5S007 whole entry G2019S): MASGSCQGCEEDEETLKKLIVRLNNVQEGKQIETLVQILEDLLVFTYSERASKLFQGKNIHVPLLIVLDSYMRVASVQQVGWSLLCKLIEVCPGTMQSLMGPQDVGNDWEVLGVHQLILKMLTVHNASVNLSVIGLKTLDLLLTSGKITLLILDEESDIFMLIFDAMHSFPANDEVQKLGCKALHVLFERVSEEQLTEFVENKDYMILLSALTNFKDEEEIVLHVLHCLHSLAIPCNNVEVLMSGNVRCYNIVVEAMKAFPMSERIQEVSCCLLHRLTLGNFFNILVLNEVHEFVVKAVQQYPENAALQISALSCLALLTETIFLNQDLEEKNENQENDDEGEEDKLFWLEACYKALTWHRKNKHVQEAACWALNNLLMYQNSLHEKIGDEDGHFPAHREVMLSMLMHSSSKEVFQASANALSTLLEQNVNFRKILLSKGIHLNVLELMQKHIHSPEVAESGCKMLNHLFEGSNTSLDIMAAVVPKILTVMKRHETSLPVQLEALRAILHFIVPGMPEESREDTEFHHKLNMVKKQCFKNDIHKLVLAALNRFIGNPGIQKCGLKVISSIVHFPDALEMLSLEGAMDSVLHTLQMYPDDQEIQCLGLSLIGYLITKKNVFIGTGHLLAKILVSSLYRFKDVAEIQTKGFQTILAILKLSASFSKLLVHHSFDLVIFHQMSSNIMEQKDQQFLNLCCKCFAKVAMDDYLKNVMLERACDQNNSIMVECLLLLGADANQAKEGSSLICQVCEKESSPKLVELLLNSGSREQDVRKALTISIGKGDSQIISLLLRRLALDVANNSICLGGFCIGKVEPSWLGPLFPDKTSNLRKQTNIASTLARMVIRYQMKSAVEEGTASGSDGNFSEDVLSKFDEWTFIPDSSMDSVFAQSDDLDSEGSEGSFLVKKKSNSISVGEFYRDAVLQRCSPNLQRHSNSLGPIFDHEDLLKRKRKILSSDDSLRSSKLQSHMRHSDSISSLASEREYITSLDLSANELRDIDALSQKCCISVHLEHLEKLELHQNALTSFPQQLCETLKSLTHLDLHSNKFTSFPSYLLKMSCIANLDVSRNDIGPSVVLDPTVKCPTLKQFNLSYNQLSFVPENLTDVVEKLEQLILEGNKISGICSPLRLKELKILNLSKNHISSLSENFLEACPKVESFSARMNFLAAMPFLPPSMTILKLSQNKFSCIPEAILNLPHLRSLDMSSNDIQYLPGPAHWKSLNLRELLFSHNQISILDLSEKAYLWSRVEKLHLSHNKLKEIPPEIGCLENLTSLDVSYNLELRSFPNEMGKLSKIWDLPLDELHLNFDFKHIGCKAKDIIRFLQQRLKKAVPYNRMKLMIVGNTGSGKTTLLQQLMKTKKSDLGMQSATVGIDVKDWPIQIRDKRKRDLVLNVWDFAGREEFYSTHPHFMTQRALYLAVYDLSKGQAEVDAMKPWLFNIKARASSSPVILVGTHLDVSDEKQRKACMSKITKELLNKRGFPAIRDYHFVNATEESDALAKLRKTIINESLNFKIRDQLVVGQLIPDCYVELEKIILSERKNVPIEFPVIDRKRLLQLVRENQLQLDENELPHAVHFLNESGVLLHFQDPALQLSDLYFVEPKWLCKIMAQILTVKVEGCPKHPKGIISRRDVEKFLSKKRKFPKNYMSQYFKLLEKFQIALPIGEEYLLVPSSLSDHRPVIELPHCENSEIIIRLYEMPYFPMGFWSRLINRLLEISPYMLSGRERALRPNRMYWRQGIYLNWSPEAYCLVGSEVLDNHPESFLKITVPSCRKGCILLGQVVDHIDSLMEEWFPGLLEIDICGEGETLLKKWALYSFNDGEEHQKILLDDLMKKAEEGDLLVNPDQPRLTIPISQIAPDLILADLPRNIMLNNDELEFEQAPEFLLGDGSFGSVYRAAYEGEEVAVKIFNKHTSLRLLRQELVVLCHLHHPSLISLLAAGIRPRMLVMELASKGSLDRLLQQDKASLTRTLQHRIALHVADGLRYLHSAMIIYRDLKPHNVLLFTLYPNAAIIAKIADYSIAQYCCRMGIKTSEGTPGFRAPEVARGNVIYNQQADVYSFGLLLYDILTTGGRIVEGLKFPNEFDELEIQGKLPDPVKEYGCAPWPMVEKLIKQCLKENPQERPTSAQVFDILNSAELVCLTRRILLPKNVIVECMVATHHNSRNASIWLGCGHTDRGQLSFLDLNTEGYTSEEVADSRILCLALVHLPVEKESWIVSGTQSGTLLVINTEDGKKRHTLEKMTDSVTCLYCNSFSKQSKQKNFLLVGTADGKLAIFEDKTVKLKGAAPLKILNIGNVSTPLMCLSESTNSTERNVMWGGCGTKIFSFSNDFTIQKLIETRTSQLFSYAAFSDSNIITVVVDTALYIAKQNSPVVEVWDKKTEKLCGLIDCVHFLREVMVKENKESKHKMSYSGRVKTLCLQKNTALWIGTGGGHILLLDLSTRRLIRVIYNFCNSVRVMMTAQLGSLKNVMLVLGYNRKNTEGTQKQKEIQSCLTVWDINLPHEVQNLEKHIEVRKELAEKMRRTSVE

AMPK(A1/B1/G1) = AMPK(A1/B1/G1) (Homo sapiens, UniProt Q13131); assay: Kinase profiling (Reaction Biology): AMPK(A1/B1/G1)
AMPK(A1/B1/G1), sequence (Q13131 whole entry): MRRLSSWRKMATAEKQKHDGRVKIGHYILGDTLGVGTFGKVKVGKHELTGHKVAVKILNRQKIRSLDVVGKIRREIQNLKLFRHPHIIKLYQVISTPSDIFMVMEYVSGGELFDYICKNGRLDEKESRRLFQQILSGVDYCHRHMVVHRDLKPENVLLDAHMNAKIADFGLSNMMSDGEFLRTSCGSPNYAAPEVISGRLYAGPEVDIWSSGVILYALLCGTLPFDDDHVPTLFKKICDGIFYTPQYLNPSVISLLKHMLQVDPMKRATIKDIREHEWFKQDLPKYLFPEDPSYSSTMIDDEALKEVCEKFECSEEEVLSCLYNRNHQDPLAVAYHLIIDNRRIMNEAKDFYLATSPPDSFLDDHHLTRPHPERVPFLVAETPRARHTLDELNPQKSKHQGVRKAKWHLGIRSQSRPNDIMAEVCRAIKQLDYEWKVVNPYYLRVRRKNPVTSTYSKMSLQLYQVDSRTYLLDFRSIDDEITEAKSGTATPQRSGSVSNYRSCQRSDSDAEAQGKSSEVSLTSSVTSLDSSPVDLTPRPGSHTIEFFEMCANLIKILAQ
AMPK(A1/B1/G1), sequence (Q9Y478 whole entry partner): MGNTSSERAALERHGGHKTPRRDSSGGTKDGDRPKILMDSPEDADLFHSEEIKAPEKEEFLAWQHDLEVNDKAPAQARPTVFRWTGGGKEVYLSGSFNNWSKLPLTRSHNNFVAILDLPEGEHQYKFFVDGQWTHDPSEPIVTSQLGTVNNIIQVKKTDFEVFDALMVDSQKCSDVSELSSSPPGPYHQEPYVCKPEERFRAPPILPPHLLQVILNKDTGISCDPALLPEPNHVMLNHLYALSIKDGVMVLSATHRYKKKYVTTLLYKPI
AMPK(A1/B1/G1), sequence (P54619 whole entry partner): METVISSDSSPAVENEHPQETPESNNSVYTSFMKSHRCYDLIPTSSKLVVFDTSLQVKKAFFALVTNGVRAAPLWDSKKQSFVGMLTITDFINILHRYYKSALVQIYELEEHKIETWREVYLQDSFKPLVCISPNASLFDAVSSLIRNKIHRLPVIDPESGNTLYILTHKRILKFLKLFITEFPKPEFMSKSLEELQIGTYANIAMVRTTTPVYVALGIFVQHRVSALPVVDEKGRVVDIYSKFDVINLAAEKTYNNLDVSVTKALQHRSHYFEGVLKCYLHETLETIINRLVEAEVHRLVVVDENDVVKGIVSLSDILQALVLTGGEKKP

VEEV (TrD) = type: cell-based, Venezuelan equine encephalitis virus; conditions: Vero cells, MOI 0.1, 24 h
[6] = system: VEEV-Luc (TC-83) and VEEV (TC-83); assay: microbe, parasite or virus in culture; type: cell-based; conditions: Venezuelan equine encephalitis virus, Vero, read-out: IC50, inhibition of VEEV

CK2a, sequence (P68400 whole entry): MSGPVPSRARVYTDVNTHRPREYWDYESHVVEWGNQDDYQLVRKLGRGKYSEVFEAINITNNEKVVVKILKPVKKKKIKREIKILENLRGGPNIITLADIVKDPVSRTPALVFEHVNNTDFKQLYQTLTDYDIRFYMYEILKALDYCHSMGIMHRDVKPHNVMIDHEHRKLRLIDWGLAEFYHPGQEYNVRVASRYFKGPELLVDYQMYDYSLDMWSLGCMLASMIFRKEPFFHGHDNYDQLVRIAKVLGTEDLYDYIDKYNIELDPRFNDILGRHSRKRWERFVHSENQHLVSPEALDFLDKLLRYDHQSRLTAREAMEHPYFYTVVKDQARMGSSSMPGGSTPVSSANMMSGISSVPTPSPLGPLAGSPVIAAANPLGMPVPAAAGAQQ

## COC(=O)c1ccc2[nH]c(C3CCN(c4ncnc5[nH]cc(Cl)c45)CC3)nc2c1 [Compound R10015, Methyl 2-(1-(5-chloro-7H-pyrrolo[2,3-d]pyrimidin-4-yl)piperidin-4-yl)-1H-benzo[d]imidazole-5-carboxylate]
CK2a
  activity at 1 µM: 94.2%
LIMK1 [1]
  IC50: 0.038 ± 0.005 µM
PAK2
  activity at 1 µM: 98.2%
STK16
  activity at 1 µM: 48.6%
[2]
  cofilin serine 3 phosphorylation: drastic inhibition
ABL1
  activity at 1 µM: 89.2%
HIV-1(Env) [3]
  viral nuclear migration (2-LTR circles): inhibited
LIMK1 [4]
  activity at 1 µM: 6.4%
TBK1
  activity at 1 µM: 82%
TESK1
  activity at 1 µM: 90.2%
CXCR4
  surface expression of CXCR4: did not alter
JNK1
  activity at 1 µM: 95.2%
DAPK1
  activity at 1 µM: 87.8%
RET
  activity at 1 µM: 46.5%
EBOV (Zaire)
  inhibition of EBOV: dose-dependent inhibition
Resting CD4 T cells
  SDF-1-mediated actin polymerization: markedly depressed
FGFR1
  activity at 1 µM: 86.5%
c-Kit
  activity at 1 µM: 81.3%
p70S6K/RPS6KB1
  inhibition at 1 µM: ≥ 90%
HIV-1(Env) [5]
  p24 release (virion release): inhibited
HIV-1(NL4-3); 100 μM, pretreated 1 h, HIV-1(NL4-3) 3 h, washed, 48 h, viable cells only, paired DMSO controls 1.76-3.37%
  Infectivity (percentage of GFP+ cells): 0.43%
HIV-1(NL4-3); at nontoxic dosages, […], Fig. 1C and 2
  X4 HIV infection in screening: blocked
Aurora A
  activity at 1 µM: 60.3%
LRRK2 (G2019S)
  activity at 1 µM: 6.7%
LRRK2 (G2019S); read-out: inhibition of LRRK2
  inhibition at 1 µM: ≥ 90%
AMPK(A1/B1/G1)
  activity at 1 µM: 76.6%
VEEV (TrD)
  inhibition of VEEV (TrD): 2 log units
[6]
  IC50: ~5 µM
